Assay results from patent publication EP4745135A1 (Gluetacs Therapeutics (Shanghai) Co., Ltd., priority 2023, dated 2025).

How the values were obtained:
[1] = molecular target: T1, human Cereblon WT GST-tagged protein (Homo sapiens, UniProt Q96SW2); assay: CRBN-binding affinity, HTRF (CEREBLON BINDING kit); settings: for inhibition at 0.5 µM: read-out: Inhibition Rate at 0.5 µM (%); for inhibition at 2 µM: read-out: Inhibition Rate at 2 µM (%)
T1 construct: purchased CISBIO 64BDCRBNPEH

CK1α = molecular target: T2, CK1α (Homo sapiens, UniProt P48729+Q96SW2); assay: Western blot, degradation of substrate protein in hPBMCs; assay type: cell-based; settings: Western blot, 24 hours of compound treatment, compounds tested at 50 nM and 500 nM (concentration for the table not stated)
T2 construct: effects of the compounds of the present disclosure on the expression of target proteins in cells; endogenous in cells; host or cells: human PBMCs (Milecell Biotechnologies)
T2 sequence (P48729 whole entry): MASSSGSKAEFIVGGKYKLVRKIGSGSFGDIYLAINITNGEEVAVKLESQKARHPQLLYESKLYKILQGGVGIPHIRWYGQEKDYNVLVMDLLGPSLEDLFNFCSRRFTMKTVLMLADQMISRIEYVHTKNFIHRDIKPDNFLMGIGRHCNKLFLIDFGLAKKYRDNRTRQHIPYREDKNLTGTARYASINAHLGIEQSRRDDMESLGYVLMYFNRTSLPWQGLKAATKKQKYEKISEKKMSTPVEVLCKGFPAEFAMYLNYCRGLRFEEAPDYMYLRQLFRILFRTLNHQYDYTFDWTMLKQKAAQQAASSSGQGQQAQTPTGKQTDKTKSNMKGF
T2 sequence (Q96SW2 whole entry): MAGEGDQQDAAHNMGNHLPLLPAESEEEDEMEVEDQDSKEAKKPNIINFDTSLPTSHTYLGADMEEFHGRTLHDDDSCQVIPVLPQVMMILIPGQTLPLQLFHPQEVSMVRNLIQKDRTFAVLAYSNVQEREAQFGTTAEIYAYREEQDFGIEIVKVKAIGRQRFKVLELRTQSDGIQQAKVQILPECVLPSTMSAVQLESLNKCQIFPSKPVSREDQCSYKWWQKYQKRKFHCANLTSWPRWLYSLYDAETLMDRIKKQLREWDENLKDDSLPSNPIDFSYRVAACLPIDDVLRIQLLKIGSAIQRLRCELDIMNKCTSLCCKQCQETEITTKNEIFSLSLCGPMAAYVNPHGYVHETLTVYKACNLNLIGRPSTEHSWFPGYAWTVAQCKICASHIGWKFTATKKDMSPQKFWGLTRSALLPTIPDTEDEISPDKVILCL
T2 sequence (Q16531 whole entry partner): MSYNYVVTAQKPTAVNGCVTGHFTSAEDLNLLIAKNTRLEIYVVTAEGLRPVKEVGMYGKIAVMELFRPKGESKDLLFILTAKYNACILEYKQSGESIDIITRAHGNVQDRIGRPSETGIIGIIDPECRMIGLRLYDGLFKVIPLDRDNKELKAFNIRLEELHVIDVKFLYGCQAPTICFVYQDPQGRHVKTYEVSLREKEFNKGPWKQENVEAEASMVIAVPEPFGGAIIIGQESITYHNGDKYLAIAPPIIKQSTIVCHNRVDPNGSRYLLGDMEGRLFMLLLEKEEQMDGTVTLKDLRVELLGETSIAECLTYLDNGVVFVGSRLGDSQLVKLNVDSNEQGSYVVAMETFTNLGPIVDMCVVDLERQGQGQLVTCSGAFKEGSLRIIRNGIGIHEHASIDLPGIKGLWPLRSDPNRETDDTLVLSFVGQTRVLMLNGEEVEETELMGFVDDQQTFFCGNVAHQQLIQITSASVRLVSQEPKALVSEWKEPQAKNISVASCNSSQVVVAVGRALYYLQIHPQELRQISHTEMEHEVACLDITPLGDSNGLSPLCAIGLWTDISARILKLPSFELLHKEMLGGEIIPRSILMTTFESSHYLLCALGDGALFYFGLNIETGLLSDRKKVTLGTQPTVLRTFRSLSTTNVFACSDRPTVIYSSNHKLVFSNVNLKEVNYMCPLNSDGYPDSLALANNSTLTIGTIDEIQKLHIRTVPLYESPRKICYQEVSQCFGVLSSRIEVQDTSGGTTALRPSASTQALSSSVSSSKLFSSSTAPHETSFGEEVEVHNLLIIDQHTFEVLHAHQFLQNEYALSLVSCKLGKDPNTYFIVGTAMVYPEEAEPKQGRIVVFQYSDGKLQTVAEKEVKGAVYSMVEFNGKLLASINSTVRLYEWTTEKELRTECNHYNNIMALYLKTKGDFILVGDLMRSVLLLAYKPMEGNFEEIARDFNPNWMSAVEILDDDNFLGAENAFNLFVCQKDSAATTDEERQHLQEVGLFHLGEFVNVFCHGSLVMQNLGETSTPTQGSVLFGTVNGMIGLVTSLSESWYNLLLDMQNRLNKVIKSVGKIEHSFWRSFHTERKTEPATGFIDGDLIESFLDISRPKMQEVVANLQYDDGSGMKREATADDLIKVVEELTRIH

IKZF1 = molecular target: T3, IKZF1 (Homo sapiens, UniProt Q13422+Q96SW2); assay: as above; assay type: cell-based; settings: Western blot, 24 hours of compound treatment, compounds tested at 50 nM and 500 nM (concentration for the table not stated)
T3 construct: effects of the compounds of the present disclosure on the expression of target proteins in cells; endogenous in cells; host or cells: human PBMCs (Milecell Biotechnologies)
T3 sequence (Q13422 whole entry): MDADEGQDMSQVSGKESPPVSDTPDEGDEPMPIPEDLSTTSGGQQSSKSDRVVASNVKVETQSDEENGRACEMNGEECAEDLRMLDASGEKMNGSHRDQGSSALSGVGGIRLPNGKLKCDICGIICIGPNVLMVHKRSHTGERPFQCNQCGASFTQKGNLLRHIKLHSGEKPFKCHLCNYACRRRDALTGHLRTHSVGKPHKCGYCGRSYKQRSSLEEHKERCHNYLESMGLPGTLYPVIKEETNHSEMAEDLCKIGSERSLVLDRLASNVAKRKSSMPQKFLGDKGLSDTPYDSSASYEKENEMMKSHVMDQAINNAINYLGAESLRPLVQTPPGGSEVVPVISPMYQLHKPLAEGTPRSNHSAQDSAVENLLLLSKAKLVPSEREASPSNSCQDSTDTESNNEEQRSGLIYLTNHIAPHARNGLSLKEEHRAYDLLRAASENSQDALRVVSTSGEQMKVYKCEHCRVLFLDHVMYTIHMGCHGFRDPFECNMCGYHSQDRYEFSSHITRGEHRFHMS
T3 sequence (Q96SW2 whole entry): as the sequence (Q96SW2 whole entry) above
T3 sequence (Q16531 whole entry partner): as the sequence (Q16531 whole entry partner) above

IKZF3 = molecular target: T4, IKZF3 (Homo sapiens, UniProt Q96SW2+Q9UKT9); assay: as above; assay type: cell-based; settings: Western blot, 24 hours of compound treatment, compounds tested at 50 nM and 500 nM (concentration for the table not stated)
T4 construct: effects of the compounds of the present disclosure on the expression of target proteins in cells; endogenous in cells; host or cells: human PBMCs (Milecell Biotechnologies)
T4 sequence (Q9UKT9 whole entry): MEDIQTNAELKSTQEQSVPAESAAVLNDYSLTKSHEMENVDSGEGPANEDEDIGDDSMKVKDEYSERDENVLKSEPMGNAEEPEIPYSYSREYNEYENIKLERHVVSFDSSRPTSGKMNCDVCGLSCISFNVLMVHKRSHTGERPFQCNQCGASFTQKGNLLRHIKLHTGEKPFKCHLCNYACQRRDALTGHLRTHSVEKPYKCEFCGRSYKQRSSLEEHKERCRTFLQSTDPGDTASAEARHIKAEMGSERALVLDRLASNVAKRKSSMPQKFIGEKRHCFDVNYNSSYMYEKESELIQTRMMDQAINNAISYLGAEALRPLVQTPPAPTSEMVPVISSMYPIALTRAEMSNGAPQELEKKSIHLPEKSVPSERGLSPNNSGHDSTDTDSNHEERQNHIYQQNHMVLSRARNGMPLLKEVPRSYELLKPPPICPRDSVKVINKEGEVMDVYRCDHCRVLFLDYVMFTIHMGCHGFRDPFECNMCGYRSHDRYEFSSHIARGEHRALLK
T4 sequence (Q96SW2 whole entry): as the sequence (Q96SW2 whole entry) above
T4 sequence (Q16531 whole entry partner): as the sequence (Q16531 whole entry partner) above

WEE1 = molecular target: T5, WEE1 (Homo sapiens, UniProt P30291+Q96SW2); assay: as above; assay type: cell-based; settings: Western blot, 24 hours of compound treatment, compounds tested at 50 nM and 500 nM (concentration for the table not stated)
T5 construct: effects of the compounds of the present disclosure on the expression of target proteins in cells; endogenous in cells; host or cells: human PBMCs (Milecell Biotechnologies)
T5 sequence (P30291 whole entry): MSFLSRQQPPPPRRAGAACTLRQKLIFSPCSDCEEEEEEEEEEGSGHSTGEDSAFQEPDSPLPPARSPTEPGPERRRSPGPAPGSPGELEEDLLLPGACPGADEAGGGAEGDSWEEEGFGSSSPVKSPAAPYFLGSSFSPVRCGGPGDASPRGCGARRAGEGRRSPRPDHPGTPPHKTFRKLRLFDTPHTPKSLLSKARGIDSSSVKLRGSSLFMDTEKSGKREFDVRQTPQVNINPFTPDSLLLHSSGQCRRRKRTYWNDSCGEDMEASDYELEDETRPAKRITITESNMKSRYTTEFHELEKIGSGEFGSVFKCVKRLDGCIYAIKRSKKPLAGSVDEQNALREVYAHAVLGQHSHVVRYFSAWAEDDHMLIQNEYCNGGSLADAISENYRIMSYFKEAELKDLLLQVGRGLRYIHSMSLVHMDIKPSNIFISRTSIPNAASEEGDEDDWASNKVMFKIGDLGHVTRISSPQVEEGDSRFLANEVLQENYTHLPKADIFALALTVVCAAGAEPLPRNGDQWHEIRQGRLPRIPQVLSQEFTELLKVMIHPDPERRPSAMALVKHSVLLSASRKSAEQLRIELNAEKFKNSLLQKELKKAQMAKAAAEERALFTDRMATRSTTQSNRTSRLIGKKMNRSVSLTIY
T5 sequence (Q96SW2 whole entry): as the sequence (Q96SW2 whole entry) above
T5 sequence (Q16531 whole entry partner): as the sequence (Q16531 whole entry partner) above

IKZF2 = molecular target: T6, IKZF2 (Homo sapiens, UniProt Q96SW2+Q9UKS7); assay: as above; assay type: cell-based; settings: Western blot, 24 hours of compound treatment, compounds tested at 50 nM and 500 nM (concentration for the table not stated)
T6 construct: effects of the compounds of the present disclosure on the expression of target proteins in cells; endogenous in cells; host or cells: human PBMCs (Milecell Biotechnologies)
T6 sequence (Q9UKS7 whole entry): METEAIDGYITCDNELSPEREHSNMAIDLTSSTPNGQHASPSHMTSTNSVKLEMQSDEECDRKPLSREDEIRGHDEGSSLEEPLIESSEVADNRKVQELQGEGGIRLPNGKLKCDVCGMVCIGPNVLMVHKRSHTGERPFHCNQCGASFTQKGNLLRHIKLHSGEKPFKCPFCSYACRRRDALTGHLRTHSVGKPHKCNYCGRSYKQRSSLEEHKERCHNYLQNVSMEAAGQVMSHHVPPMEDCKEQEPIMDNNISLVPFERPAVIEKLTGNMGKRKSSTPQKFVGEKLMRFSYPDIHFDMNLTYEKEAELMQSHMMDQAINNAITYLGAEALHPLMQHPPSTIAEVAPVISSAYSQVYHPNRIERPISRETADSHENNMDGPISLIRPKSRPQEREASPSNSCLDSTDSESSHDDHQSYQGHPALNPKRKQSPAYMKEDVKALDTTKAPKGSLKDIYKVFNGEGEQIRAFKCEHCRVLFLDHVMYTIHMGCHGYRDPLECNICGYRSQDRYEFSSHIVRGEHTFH
T6 sequence (Q96SW2 whole entry): as the sequence (Q96SW2 whole entry) above
T6 sequence (Q16531 whole entry partner): as the sequence (Q16531 whole entry partner) above

GSPT1 = assay: as above; assay type: cell-based, Human; settings: Western blot, 24 hours of compound treatment, compounds tested at 50 nM and 500 nM (concentration for the table not stated)

T1 sequence (Q96SW2 whole entry): as the sequence (Q96SW2 whole entry) above

Row | Structure (SMILES) | inhibition at 0.5 µM [1] [%] | inhibition at 2 µM [1] [%] | CK1α substrate protein remaining % (CK1α) | IKZF 1 substrate protein remaining % (IKZF1) | IKZF3 substrate protein remaining % (IKZF3) | Wee1 substrate protein remaining % (WEE1) | IKZF2 substrate protein remaining % (IKZF2) | GSPT1 substrate protein remaining % (GSPT1)
1 | O=C1CCC(N2Cc3c(CN4CCN(c5ccc(F)cc5F)CC4)cccc3C2=S)C(=O)N1 (stereo not drawn) [GT-08503, 3-(4-((4-(2,4-difluorophenyl)piperazin-1-yl)methyl)-1-thioxoisoindolin-2-yl)piperidine-2,6-dione] | 40 to 53 | 60 to 80 | B (80%< substrate protein remaining %≤ 100%) | B (80%< substrate protein remaining %≤ 100%) | B (80%< substrate protein remaining %≤ 100%) | A (0% ≤ substrate protein remaining % ≤ 80%) | B (80%< substrate protein remaining %≤ 100%) | A (0% ≤ substrate protein remaining % ≤ 80%)
2 | Cc1ccc(Cl)cc1N1CCN(Cc2cccc3c2CN(C2CCC(=O)NC2=O)C3=S)CC1 (stereo not drawn) [GT-08505, 3-(4-((4-(5-chloro-2-methylphenyl)piperazin-1-yl)methyl)-1-thioxoisoindolin-2-yl)piperidine-2,6-dione] | 40 to 53 | 60 to 80 | B (80%< substrate protein remaining %≤ 100%) | B (80%< substrate protein remaining %≤ 100%) | A (0% ≤ substrate protein remaining % ≤ 80%) | A (0% ≤ substrate protein remaining % ≤ 80%) | B (80%< substrate protein remaining %≤ 100%) | B (80%< substrate protein remaining %≤ 100%)
3 | O=C1CCC(N2Cc3c(CN4CCC(c5cccc(Br)c5)CC4)cccc3C2=S)C(=O)N1 (stereo not drawn) [GT-08507, 3-(4-((4-(3-bromophenyl)piperidin-1-yl)methyl)-1-thioxoisoindolin-2-yl)piperidine-2,6-dione] | 40 to 53 | 60 to 80 | B (80%< substrate protein remaining %≤ 100%) | B (80%< substrate protein remaining %≤ 100%) | A (0% ≤ substrate protein remaining % ≤ 80%) | A (0% ≤ substrate protein remaining % ≤ 80%) | B (80%< substrate protein remaining %≤ 100%) | B (80%< substrate protein remaining %≤ 100%)
4 | O=C1CCC(N2Cc3c(CN4CCC(c5ccc(Br)cc5)CC4)cccc3C2=S)C(=O)N1 (stereo not drawn) [GT-08592, 3-(4-((4-(4-bromophenyl)piperidin-1-yl)methyl)-1-thioxoisoindolin-2-yl)piperidine-2,6-dione] | 40 to 53 | 60 to 80 | B (80%< substrate protein remaining %≤ 100%) | B (80%< substrate protein remaining %≤ 100%) | B (80%< substrate protein remaining %≤ 100%) | A (0% ≤ substrate protein remaining % ≤ 80%) | B (80%< substrate protein remaining %≤ 100%) | B (80%< substrate protein remaining %≤ 100%)

More lines, main results first:

Row | inhibition at 0.5 µM [1] [%] | inhibition at 2 µM [1] [%] | Structure (SMILES) | CK1α substrate protein remaining % (CK1α) | IKZF 1 substrate protein remaining % (IKZF1) | IKZF3 substrate protein remaining % (IKZF3) | Wee1 substrate protein remaining % (WEE1) | IKZF2 substrate protein remaining % (IKZF2) | GSPT1 substrate protein remaining % (GSPT1)
5 | 40 to 53 | 60 to 80 | O=C1CCC(N2Cc3c(CN4CCN(c5cc(F)ccc5F)CC4)cccc3C2=S)C(=O)N1 (stereo not drawn) [GT-08593, 3-(4-((4-(2,5-difluorophenyl)piperazin-1-yl)methyl)-1-thioxoisoindolin-2-yl)piperidine-2,6-dione] | B (80%< substrate protein remaining %≤ 100%) | B (80%< substrate protein remaining %≤ 100%) | B (80%< substrate protein remaining %≤ 100%) | A (0% ≤ substrate protein remaining % ≤ 80%) | B (80%< substrate protein remaining %≤ 100%) | B (80%< substrate protein remaining %≤ 100%)
6 | 30 to 40 | 53 to 60 | O=C1CCC(N2Cc3c(CN4CCC(c5ccc(Cl)cc5)CC4)cccc3C2=S)C(=O)N1 (stereo not drawn) [GT-08594, 3-(4-((4-(4-chlorophenyl)piperidin-1-yl)methyl)-1-thioxoisoindolin-2-yl)piperidine-2,6-dione] | B (80%< substrate protein remaining %≤ 100%) | B (80%< substrate protein remaining %≤ 100%) | B (80%< substrate protein remaining %≤ 100%) | A (0% ≤ substrate protein remaining % ≤ 80%) | A (0% ≤ substrate protein remaining % ≤ 80%) | B (80%< substrate protein remaining %≤ 100%)
7 | 40 to 53 | 60 to 80 | O=C1CCC(N2Cc3c(CN4CCC(c5ccccc5C(F)(F)F)CC4)cccc3C2=S)C(=O)N1 (stereo not drawn) [GT-08598, 3-(1-thioxo-4-((4-(2-(trifluoromethyl)phenyl)piperidin-1-yl)methyl)isoindolin-2-yl)piperidine-2,6-dione] | B (80%< substrate protein remaining %≤ 100%) | B (80%< substrate protein remaining %≤ 100%) | B (80%< substrate protein remaining %≤ 100%) | A (0% ≤ substrate protein remaining % ≤ 80%) | B (80%< substrate protein remaining %≤ 100%) | A (0% ≤ substrate protein remaining % ≤ 80%)
8 | 30 to 40 | 60 to 80 | O=C1CCC(N2Cc3c(CN4CCC(c5cccc(C(F)(F)F)c5)CC4)cccc3C2=S)C(=O)N1 (stereo not drawn) [GT-08599, 3-(1-thioxo-4-((4-(3-(trifluoromethyl)phenyl)piperidin-1-yl)methyl)isoindolin-2-yl)piperidine-2,6-dione] | B (80%< substrate protein remaining %≤ 100%) | B (80%< substrate protein remaining %≤ 100%) | B (80%< substrate protein remaining %≤ 100%) | A (0% ≤ substrate protein remaining % ≤ 80%) | B (80%< substrate protein remaining %≤ 100%) | B (80%< substrate protein remaining %≤ 100%)
9 | 40 to 53 | 80 to 100 | Cc1ccccc1N1CCN(Cc2ccc3c(c2)CN(C2CCC(=O)NC2=O)C3=S)CC1 (stereo not drawn) [GT-08601, 3-(1-thioxo-5-((4-(o-tolyl)piperazin-1-yl)methyl)isoindolin-2-yl)piperidine-2,6-dione] | B (80%< substrate protein remaining %≤ 100%) | B (80%< substrate protein remaining %≤ 100%) | B (80%< substrate protein remaining %≤ 100%) | B (80%< substrate protein remaining %≤ 100%) | B (80%< substrate protein remaining %≤ 100%) | A (0% ≤ substrate protein remaining % ≤ 80%)
